Laboratory results as given in patent US20060140991A1, “Pharmaceutical preparations having an improved solubility” (AJINOMOTO CO. INC, priority 2003, published 2006).
In brackets after ≈: the same amount, converted by molar mass.

What was measured:
[1] = Solubilization by fixing the micelle structure: drug concentration in the clear neutral liquid; assay type: physicochemical; settings: for clear liquid obtained: no alkali; for clear liquid obtained / concentration of AP-1067 in clear neutral liquid containing solubilized drug: 45° C.; for concentration of AP-1067 in clear neutral liquid containing solubilized drug: pH adjusted to neutral
Description: (§1) About 10 mg of AP-1067 was dispersed into 1 mL of water. An aqueous solution of sodium hydroxide was added thereto to adjust the solution to pH=13 or above. The suspension was heated up to 45° C. to obtain a clear alkali aqueous liquid containing solubilized AP-1067 wherein a micelle of AP-1067 was formed. (AP-1067 concentration: about 10 mg/mL)
(§2) 40 mg of sodium dodecyl sulfate (SDS) was added to the alkali aqueous liquid to fix the formed micelle structure. Then, an aqueous solution of hydrochloric acid was added dropwise thereto and its pH was adjusted to neutral to obtain a clear neutral liquid containing slubilized AP-1067 wherein the micelle of AP-1067 existed in the fixed manner. The concentration of AP-1067 at that time was 9.1 mg/mL.
as §1, with “solution of” for “liquid containing solubilized”
as §2, with “100 mg” for “40 mg”, “of Polysorbate 80” for “of sodium dodecyl sulfate (SDS)”, “aqueous solution” for “aqueous liquid”, “containing solubilized” for “containing slubilized”, “was 10.3” for “was 9.1”
10 mg of AP-1067 and 40 mg of SDS were dispersed into 1 mL of water. The suspension was heated up to 45° C., and the ultrasonic treatment was conducted for 1.5 hours.
10 mg of AP-1067 and 100 mg of Polysorbate 80 were dispersed into 1 mL of water. The suspension was heated up to 45° C., and the ultrasonic treatment was conducted for 1.5 hours.
10 mg of APC0576 and 83 mg of cetylpyridinium chloride monohydrate were dispersed and dissolved into 1 mL of an aqueous solution of 1.5 mol/L hydrochloric acid. The suspension was heated up to 50° C., and the ultrasonic treatment was conducted thereto to obtain a clear acidic aqueous liquid containing solubilized APC0576 wherein a micelle of the poorly-soluble drug APC0576 existed in the fixed manner. (APC0576 concentration: about 10 mg/mL)
An aqueous solution of 10 mol/L sodium hydroxide was added dropwise to the acidic aqueous liquid to adjust its pH to nearly neutral to obtain about 7 mg/mL of a clear liquid containing solubilized APC0576 wherein the micelle of APC0576 existed in the fixed manner. (see FIG. 3)
10 mg of APC0576 and 85 mg of cetylpyridinium chloride monohydrate were dissolved into 1 mL of water. The suspension was heated up to 50° C., and the ultrasonic treatment was conducted for 1.5 hours. […] (see FIG. 3)

[2] = Solubility in water at room temperature

| clear solubilized solution obtained ([1]; Comparative Example 3: 10 mg drug and 85 mg cetylpyridinium chloride monohydrate in 1 mL water, no acid, 50° C., ultrasonic 1.5 hours) | concentration of clear liquid containing solubilized APC0576 ([1]; Example 3: 83 mg cetylpyridinium chloride monohydrate, 1.5 mol/L hydrochloric acid, 50° C., ultrasonic, pH adjusted to nearly neutral) | Structure (SMILES) | clear liquid obtained ([1]; Comparative Example 1: 10 mg drug and 40 mg SDS in 1 mL water, ultrasonic 1.5 hours) | clear liquid obtained ([1]; Comparative Example 2: 10 mg drug and 100 mg Polysorbate 80 in 1 mL water, ultrasonic 1.5 hours) | concentration of AP-1067 in clear neutral liquid containing solubilized drug ([1]; Example 1: micelle formed at pH=13 or above, fixed with 40 mg SDS) [mg/mL] | concentration of AP-1067 in clear neutral liquid containing solubilized drug ([1]; Example 2: micelle formed at pH=13 or above, fixed with 100 mg Polysorbate 80) [mg/mL] | solubility [2] [µg/mL] |
| --- | --- | --- | --- | --- | --- | --- | --- |
| – | – | Cl.NS(=O)(=O)c1ccc(/C=C/CN2CCC(=C3c4ccccc4C=Cc4ccccc43)CC2)cc1 [AP-1067, (4-(5H-dibenzo[a,d]cyclohepten-5-ylidene)-1-[3-[4-sulfamoylphenyl]-2(E)-propenyl]-piperidine, monohydro-chloride)] | could not be obtained | could not be obtained | 9.1 | 10.3 | ~30 |
| could not be obtained | about 7 mg/mL | CC1(C)C[C@@H]1C(=O)Nc1ccc(Oc2ccc(NC(=O)[C@H]3CC3(C)C)cn2)cc1 [APC0576, 5-(((S)-2,2-dimethyl-cyclopropancarbonyl)amino)-2-(4-(((S)-2,2-dimethylcyclopropancarbonyl)amino)phenoxy)pyridine] | – | – | – | – | ~1.6 (≈ 4.07 µM) |
